{"source": "patent US20030187007A1", "about": "“Inhibitors of protein kinase for the treatment of disease” (priority 2001, published 2003)", "key": {"[1]": {"tested_on": "NCI-H23", "type": "cell-based", "settings": "Homo sapiens, NCI-H23, Non-Small Cell Lung Cancer, 72 hours"}, "[2]": {"tested_on": "MDA-MB-231/ATCC", "assay": "In vitro tumor cell efficacy test (SRB), Breast Cancer", "type": "cell-based", "settings": "Homo sapiens, 72 hours"}, "[3]": {"tested_on": "panel of protein kinases", "assay": "Specificity studies, overall statement", "type": "biochemical", "procedure": "The assays of kinases were determined by monitoring the phosphorylation of appropriate substrates. The assay mixture contained 0.1 mM cold ATP ^33P-γ-ATP (2000-4000 cpm/μL), 0.1 mM substrate, 1 mM DTT, and 10 mM MgCl2 in 100 mM HEPES buffer pH 7.4. The assay mixture, along with inhibitor and kinase enzyme (0.3-0.4 U/mL), was mixed together in a microtiter 96-well plate in a final volume of 40 μL, sealed and incbated for 1 hour at 30° C. Following incubation, a 15 μL aliquot was added to a Whatman P81 filtration plate containing 100 μL 0.5% phosphoric acid. This mixture was allowed to stand for 5 minutes prior to filtration on a vacuum manifold. The filter plate was washed with 5 successive additions of 300 μL 0.5% phosporic acid. The filtration plate was air dried for 10 minutes before sealing the bottom. After addition of scintillation fluid to the sealed plate, phosphorylated substrate was quantified in a scintillation counter."}, "[4]": {"tested_on": "U251", "assay": "In vitro tumor cell efficacy test (SRB), CNS Cancer", "type": "cell-based", "settings": "Homo sapiens, U-251, 72 hours"}, "[5]": {"tested_on": "A498", "assay": "In vitro tumor cell efficacy test (SRB), Renal Cancer", "type": "cell-based", "settings": "Homo sapiens, 72 hours"}, "[6]": {"tested_on": "ACHN", "assay": "In vitro tumor cell efficacy test (SRB), Renal Cancer", "type": "cell-based", "settings": "Homo sapiens, 72 hours"}, "[7]": {"tested_on": "KM12", "assay": "In vitro tumor cell efficacy test (SRB), Colon Cancer", "type": "cell-based", "settings": "Homo sapiens, 72 hours"}, "[8]": {"tested_on": "M14", "assay": "In vitro tumor cell efficacy test (SRB), Melonoma", "type": "cell-based", "settings": "Homo sapiens, 72 hours"}, "[9]": {"tested_on": "NCI-H522", "type": "cell-based", "settings": "Homo sapiens; NCI-H522, Non-Small Cell Lung Cancer, 72 hours"}, "[10]": {"tested_on": "UO-31", "assay": "In vitro tumor cell efficacy test (SRB), Renal Cancer", "type": "cell-based", "settings": "Homo sapiens, UO-31, Renal Cancer, 72 hours"}, "[11]": {"tested_on": "HL-60(TB)", "assay": "In vitro tumor cell efficacy test (SRB), Leukemia", "type": "cell-based", "settings": "Homo sapiens, 72 hours"}, "[12]": {"tested_on": "HS 578T", "assay": "In vitro tumor cell efficacy test (SRB), Breast Cancer", "type": "cell-based", "settings": "Homo sapiens, 72 hours"}, "[13]": {"tested_on": "NCI/ADR-RES", "assay": "In vitro tumor cell efficacy test (SRB), Breast Cancer", "type": "cell-based", "settings": "Homo sapiens, 72 hours"}, "[14]": {"tested_on": "OVCAR-8", "assay": "In vitro tumor cell efficacy test (SRB), Ovarian Cancer", "type": "cell-based", "settings": "Homo sapiens, OVCAR-8, Ovarian Cancer, 72 hours"}, "[15]": {"tested_on": "BT-549", "assay": "In vitro tumor cell efficacy test (SRB), Breast Cancer", "type": "cell-based", "settings": "Homo sapiens; BT-549, Breast Cancer, 72 hours"}, "[16]": {"tested_on": "LOX IMVI", "assay": "In vitro tumor cell efficacy test (SRB), Melonoma", "type": "cell-based", "settings": "Homo sapiens, 72 hours"}, "[17]": {"tested_on": "HCT-15", "assay": "In vitro tumor cell efficacy test (SRB), Colon Cancer", "type": "cell-based", "settings": "Homo sapiens; HCT-15, Colon Cancer, 72 hours"}, "[18]": {"tested_on": "K-562", "assay": "In vitro tumor cell efficacy test (SRB), Leukemia", "type": "cell-based", "settings": "Homo sapiens, K562, K-562, Leukemia, 72 hours"}, "[19]": {"tested_on": "HT29", "assay": "In vitro tumor cell efficacy test (SRB), Colon Cancer", "type": "cell-based", "settings": "Homo sapiens, HT-29, 72 hours"}, "[20]": {"tested_on": "UACC-62", "assay": "In vitro tumor cell efficacy test (SRB), Melonoma", "type": "cell-based", "settings": "Homo sapiens, UACC-62, Melonoma, 72 hours"}, "[21]": {"tested_on": "SK-OV-3", "assay": "In vitro tumor cell efficacy test (SRB), Ovarian Cancer", "type": "cell-based", "settings": "Homo sapiens, SK-OV-3, Ovarian Cancer, 72 hours"}, "[22]": {"tested_on": "MOLT-4", "assay": "In vitro tumor cell efficacy test (SRB), Leukemia", "type": "cell-based", "settings": "Homo sapiens, MOLT-4, Leukemia, 72 hours"}, "[23]": {"tested_on": "SW-620", "assay": "In vitro tumor cell efficacy test (SRB), Colon Cancer", "type": "cell-based", "settings": "Homo sapiens, SW-620, Colon Cancer, 72 hours"}, "[24]": {"tested_on": "CCRF-CEM", "assay": "In vitro tumor cell efficacy test (SRB), Leukemia", "type": "cell-based", "settings": "Homo sapiens, 72 hours"}, "[25]": {"tested_on": "SF-539", "assay": "In vitro tumor cell efficacy test (SRB), CNS Cancer", "type": "cell-based", "settings": "Homo sapiens; SF-539, CNS Cancer, 72 hours"}, "[26]": {"tested_on": "HOP-92", "type": "cell-based", "settings": "Homo sapiens, HOP-92, Non-Small Cell Lung Cancer, 72 hours"}, "[27]": {"tested_on": "DU-145", "assay": "In vitro tumor cell efficacy test (SRB), Prostate Cancer", "type": "cell-based", "settings": "Homo sapiens; DU-145, Prostate Cancer, 72 hours"}, "[28]": {"tested_on": "SK-MEL-28", "assay": "In vitro tumor cell efficacy test (SRB), Melonoma", "type": "cell-based", "settings": "Homo sapiens, SK-MEL-28, Melonoma, 72 hours"}, "[29]": {"tested_on": "SN12C", "assay": "In vitro tumor cell efficacy test (SRB), Renal Cancer", "type": "cell-based", "settings": "Homo sapiens, 72 hours"}, "[30]": {"tested_on": "786-0", "assay": "In vitro tumor cell efficacy test (SRB), Renal Cancer", "type": "cell-based", "settings": "Homo sapiens, 786-0, Renal Cancer, 72 hours"}, "[31]": {"settings": "read-out: Log (LC50) (the source's name) (converted)"}}, "data": [{"smiles": "Nc1nccc(-c2cc(-c3ccc(O)cc3)ccc2O)n1", "note": "[3-(2-Amino-pyrimidin-4-yl)-biphenyl-4,4′-diol]", "values": [{"measurement": "GI50", "setting": "[1]", "value": 251, "unit": "nM"}, {"measurement": "CC50", "setting": "[1]; [31]", "value": "> 100000", "unit": "nM"}, {"measurement": "GI50", "setting": "[2]", "value": 251, "unit": "nM"}, {"measurement": "CC50", "setting": "[2]; [31]", "value": "> 100000", "unit": "nM"}, {"measurement": "specificity", "setting": "[3]; CDK5 and CDK2 versus a panel of protein kinases", "value": "highly specific for CDK5 and CDK2"}, {"measurement": "inhibition against a panel of protein kinases", "setting": "[3]; panel of protein kinases", "value": "little inhibition"}, {"measurement": "GI50", "setting": "[4]", "value": 200, "unit": "nM"}, {"measurement": "CC50", "setting": "[4]; [31]", "value": "> 100000", "unit": "nM"}, {"measurement": "GI50", "setting": "[5]", "value": 1580, "unit": "nM"}, {"measurement": "CC50", "setting": "[5]; [31]", "value": "> 100000", "unit": "nM"}, {"measurement": "GI50", "setting": "[6]", "value": 251, "unit": "nM"}, {"measurement": "CC50", "setting": "[6]; [31]", "value": "> 100000", "unit": "nM"}, {"measurement": "GI50", "setting": "[7]", "value": 126, "unit": "nM"}, {"measurement": "CC50", "setting": "[7]; [31]", "value": "> 100000", "unit": "nM"}, {"measurement": "GI50", "setting": "[8]", "value": 398, "unit": "nM"}, {"measurement": "CC50", "setting": "[8]; [31]", "value": "> 100000", "unit": "nM"}, {"measurement": "GI50", "setting": "[9]", "value": 200, "unit": "nM"}, {"measurement": "LC50", "setting": "[9]", "value": "> 100000", "unit": "nM"}, {"measurement": "GI50", "setting": "[10]", "value": 251, "unit": "nM"}, {"measurement": "CC50", "setting": "[10]; [31]", "value": "> 100000", "unit": "nM"}, {"measurement": "GI50", "setting": "[11]", "value": 126, "unit": "nM"}, {"measurement": "CC50", "setting": "[11]; [31]", "value": 79400, "unit": "nM"}, {"measurement": "GI50", "setting": "[12]", "value": 398, "unit": "nM"}, {"measurement": "CC50", "setting": "[12]; [31]", "value": "> 100000", "unit": "nM"}, {"measurement": "GI50", "setting": "[13]", "value": 316, "unit": "nM"}, {"measurement": "CC50", "setting": "[13]; [31]", "value": "> 100000", "unit": "nM"}, {"measurement": "GI50", "setting": "[14]", "value": 200, "unit": "nM"}, {"measurement": "CC50", "setting": "[14]; [31]", "value": "> 100000", "unit": "nM"}, {"measurement": "GI50", "setting": "[15]", "value": 251, "unit": "nM"}, {"measurement": "LC50", "setting": "[15]", "value": "> 100000", "unit": "nM"}, {"measurement": "GI50", "setting": "[16]", "value": 200, "unit": "nM"}, {"measurement": "CC50", "setting": "[16]; [31]", "value": "> 100000", "unit": "nM"}, {"measurement": "GI50", "setting": "[17]", "value": 126, "unit": "nM"}, {"measurement": "LC50", "setting": "[17]", "value": "> 100000", "unit": "nM"}, {"measurement": "GI50", "setting": "[18]", "value": 398, "unit": "nM"}, {"measurement": "CC50", "setting": "[18]; [31]", "value": "> 100000", "unit": "nM"}, {"measurement": "GI50", "setting": "[19]", "value": 3160, "unit": "nM"}, {"measurement": "CC50", "setting": "[19]; [31]", "value": "> 100000", "unit": "nM"}, {"measurement": "GI50", "setting": "[20]", "value": 200, "unit": "nM"}, {"measurement": "CC50", "setting": "[20]; [31]", "value": 12600, "unit": "nM"}, {"measurement": "GI50", "setting": "[21]", "value": 501, "unit": "nM"}, {"measurement": "CC50", "setting": "[21]; [31]", "value": "> 100000", "unit": "nM"}, {"measurement": "GI50", "setting": "[22]", "value": 251, "unit": "nM"}, {"measurement": "CC50", "setting": "[22]; [31]", "value": "> 100000", "unit": "nM"}, {"measurement": "GI50", "setting": "[23]", "value": 316, "unit": "nM"}, {"measurement": "CC50", "setting": "[23]; [31]", "value": "> 100000", "unit": "nM"}, {"measurement": "GI50", "setting": "[24]", "value": 200, "unit": "nM"}, {"measurement": "CC50", "setting": "[24]; [31]", "value": 79400, "unit": "nM"}, {"measurement": "GI50", "setting": "[25]", "value": 200, "unit": "nM"}, {"measurement": "LC50", "setting": "[25]", "value": "> 100000", "unit": "nM"}, {"measurement": "GI50", "setting": "[26]", "value": 398, "unit": "nM"}, {"measurement": "CC50", "setting": "[26]; [31]", "value": "> 100000", "unit": "nM"}, {"measurement": "GI50", "setting": "[27]", "value": 794, "unit": "nM"}, {"measurement": "LC50", "setting": "[27]", "value": "> 100000", "unit": "nM"}, {"measurement": "GI50", "setting": "[28]", "value": 251, "unit": "nM"}, {"measurement": "CC50", "setting": "[28]; [31]", "value": "> 100000", "unit": "nM"}, {"measurement": "GI50", "setting": "[29]", "value": 251, "unit": "nM"}, {"measurement": "CC50", "setting": "[29]; [31]", "value": "> 100000", "unit": "nM"}, {"measurement": "GI50", "setting": "[30]", "value": 251, "unit": "nM"}, {"measurement": "CC50", "setting": "[30]; [31]", "value": "> 100000", "unit": "nM"}]}]}
